In brackets after ≈: the same amount, converted by molar mass.
Assays:
Hepatitis B virus = experiment: Antiviral activity against HBV infected in human HepG2.2.15 cells assessed as reduction in HBV DNA replication measured after 5 days by qPCR analysis; assay type: functional, organism-based; conditions: HepG2.2.15, 120 h
[1] = Cytotoxicity against human HepDE19 cells assessed as reduction in cell viability measured after 5 days by CCK-8 method; assay type: functional; conditions: HepDE19, 120 h, time 5 day
[2] = Selectivity index, ratio of CC50 for human HepDE19 cells assessed as reduction in cell viability to EC50 for HBV infected in human HepG2.2.15 cells assessed as reduction in HBV DNA replication; assay type: toxicity, cell-based; conditions: HBV-infected HepG2.2.15 cells (EC50)
[3] = Lyophilization solubility of the compound in phosphate buffer at pH 6.5 incubated for 1 hr under stirring condition and 2 hrs under shaking condition by HPLC-UV analysis; assay type: physicochemical
[4] = Metabolic stability in mouse liver microsomes assessed as clearance at 1 uM preincubated for 10 mins and measured upto 30 mins in presence of NADPH generating system by LC-MS/MS analysis; assay type: ADME, Microsome; conditions: time < 40 min
[5] = Metabolic stability in human liver microsomes assessed as clearance at 1 uM preincubated for 10 mins and measured upto 30 mins in presence of NADPH generating system by LC-MS/MS analysis; assay type: ADME, Microsome; conditions: time < 40 min

SMILES | EC50 (Hepatitis B virus) [nM] | solubility at 3 h [3] [µg/mL] | CLhep predicted at 1 µM [4] [mL/min/kg] | CLhep predicted at 1 µM [5] [mL/min/kg] | CC50 [1] [µM] | selectivity ratio [2]
O=C(Cc1ccccc1)N1CCn2ncc(-c3ccc(F)cc3)c2C1 | 3140 |  |  |  | > 100 | > 32
CC1c2c(-c3ccc(F)cc3)cnn2CCN1C(=O)Nc1ccccc1 (stereo not drawn) | 1850 | < 1 |  |  | 45 | 24
CCCc1cccc(NC(=O)N2CCn3ncc(-c4ccc(F)cc4)c3C2)c1 | 2710 | 4.4 (≈ 11.6 µM) |  |  | 13 | 5
O=C(NC1CCCC1)N1CCn2ncc(-c3ccc(F)cc3)c2C1 | 1850 |  |  |  | > 100 | > 54
O=C(Nc1ccccc1Cl)N1CCn2ncc(-c3ccc(F)cc3)c2C1 | > 10000 |  |  |  | > 100 | 
O=C(NCc1ccccc1)N1CCn2ncc(-c3ccc(F)cc3)c2C1 | 1440 |  |  |  | 91 | 63
O=C(Nc1ccccn1)N1CCn2ncc(-c3ccc(F)cc3)c2C1 | > 10000 | 2 (≈ 5.93 µM) | 80 | 17 | > 100 | 
CN(C(=O)N1CCn2ncc(-c3ccc(F)cc3)c2C1)c1ccccc1 | 2190 |  |  |  | 93 | 42
O=C(Nc1cccnn1)N1CCn2ncc(-c3ccc(F)cc3)c2C1 | > 10000 | 2 (≈ 5.91 µM) | 34 | 7 | > 100 | 
O=C(c1ccccc1)N1CCn2ncc(-c3ccc(F)cc3)c2C1 | 3760 |  |  |  |  | 

The next compounds have a lower EC50 (Hepatitis B virus) than those just listed; values first:

EC50 (Hepatitis B virus) [nM] | solubility at 3 h [3] [µg/mL] | CLhep predicted at 1 µM [4] [mL/min/kg] | CLhep predicted at 1 µM [5] [mL/min/kg] | SMILES | CC50 [1] [µM] | selectivity ratio [2]
133 |  |  |  | C[C@H]1CN(C(=O)Nc2ccc(F)c(Cl)c2)Cc2c(-c3ccc(F)cc3)cnn21 | 28 | 210
1200 |  |  |  | Cc1ccc(NC(=O)N2CCn3ncc(-c4ccc(F)cc4)c3C2)cc1 | 34 | 28
219 |  |  |  | O=C(Nc1cc(F)cc(F)c1)N1CCn2ncc(-c3ccc(F)cc3)c2C1 | 11 | 49
366 |  |  |  | O=C(Nc1ccc(Cl)cc1)N1CCn2ncc(-c3ccc(F)cc3)c2C1 | 29 | 79
111 | < 1 |  |  | C[C@@H]1Cn2ncc(-c3ccc(F)cc3)c2CN1C(=O)Nc1ccc(F)c(Cl)c1 | 26 | 234
939 |  |  |  | O=C(Nc1ccccc1F)N1CCn2ncc(-c3ccc(F)cc3)c2C1 | 12 | 13
414 |  |  |  | O=C(Nc1cccc(F)c1)N1CCn2ncc(-c3ccc(F)cc3)c2C1 | 32 | 76
131 |  |  |  | Cc1cccc(NC(=O)N2CCn3ncc(-c4ccc(F)cc4)c3C2)c1 | 88 | 672
155 |  | 65 | 16 | O=C(Nc1ccc(F)c(F)c1)N1CCn2ncc(-c3ccc(F)cc3)c2C1 | 34 | 222
12 | < 1 |  |  | C[C@H]1Cn2ncc(-c3ccc(F)cc3)c2CN1C(=O)Nc1ccc(F)c(Cl)c1 | 26 | 2170
387 |  | 63 | 16 | O=C(Nc1cc(F)c(F)c(F)c1)N1CCn2ncc(-c3ccc(F)cc3)c2C1 | 31 | 80
37 |  |  |  | C[C@@H]1CN(C(=O)Nc2ccc(F)c(Cl)c2)Cc2c(-c3ccc(F)cc3)cnn21 | 97 | 2620
32 |  | 68 | 16 | Cc1cc(NC(=O)N2CCn3ncc(-c4ccc(F)cc4)c3C2)ccc1F | 26 | 830
248 |  |  |  | CCc1cccc(NC(=O)N2CCn3ncc(-c4ccc(F)cc4)c3C2)c1 | 55 | 220
